Source: PubChem BioAssay AID540252 (Sanford-Burnham Center for Chemical Genomics, 2011)
Active and inactive are the calls of the source. No rule for the calls is given here.

molecular target: glucose-6-phosphate dehydrogenase-6-phosphogluconolactonase (Plasmodium falciparum 3D7); assay: inhibition of P. falciparum G6PD activity – biochemical, end-point NADPH detection, orthogonal assay, dose response (AID 540252); conditions: purified PfG6PD enzyme, NADPH direct detection

Structure (SMILES)	IC50
O=C(CBr)c1ccc([N+](=O)[O-])c(CS(=O)(=O)c2ccc(Cl)cc2)c1	42.5 µM
O=C(CCc1ccc(O)c(O)c1)N/N=C/c1cc2c(cc1[N+](=O)[O-])OCO2	> 80 µM (inactive)
Cc1ccc2nc(-c3ccc(NC(=S)NC4CC(C)(C)NC(C)(C)C4)cc3)sc2c1	> 80 µM (inactive)
O=C1C=CC(=O)N1CCCCCCCCCCN1C(=O)C=CC1=O	> 80 µM (inactive)
COc1ccc2c(c1)c(=Cc1ccc(N(C)C)cc1)c1cc(-c3ccccc3)[n+](C)n12	> 80 µM (inactive)
COC(=O)c1cc2c(n1S(=O)(=O)c1ccc(C)cc1)C(=O)C(=O)c1[nH]cc(C(=O)OCc3ccccc3)c1-2	> 80 µM (inactive)
COc1ccc(S(=O)(=O)/N=C2\C=C(Nc3ccc(O)cc3)C(=O)c3ccccc32)cc1	> 80 µM (inactive)
Cc1cc(N=NC(=O)c2ccccc2O)c2ccccc2c1O	> 80 µM (inactive)
Cc1cc(NC(=O)c2oc3ccccc3c2C)ccc1-n1cnnn1	> 80 µM (inactive)
Cc1cc(C)c2c(=O)n(CC(=O)Nc3ccc(Br)c(C)c3)sc2n1	> 80 µM (inactive)
CCCn1cc(S(=O)(=O)CC(=O)Nc2ccc(OC)cc2OC)c2ccccc21	> 80 µM (inactive)
CCn1c(N)c(C(=O)NC)sc1=S	> 80 µM (inactive)
C[C@H](CO)N1C[C@H](C)[C@@H](CN(C)C(=O)Nc2ccc(C(F)(F)F)cc2)Oc2c(cccc2N(C)C)C1=O	> 80 µM (inactive)
Cc1ccc(-c2c(C(=O)N/N=C/c3ccc(C)o3)nnn2-c2nonc2N)cc1	> 80 µM (inactive)
COC(=O)[C@H](CCSC)NC(=O)c1cc2c(cn1)[nH]c1ccccc12	> 80 µM (inactive)
O=C(Nc1nc(-c2ccncc2)cs1)C1COc2ccccc2O1 (stereo unspecified)	> 80 µM (inactive)
CCCN1CCc2cccc3c2[C@H]1Cc1ccc(O)c(O)c1-3	> 80 µM (inactive)
Cc1ccsc1/C=N/NC(=O)c1cccc(S(=O)(=O)Nc2ccccc2Cl)c1	> 80 µM (inactive)
O=C(Cc1ccccc1)NCC(=O)OCC(=O)c1ccc([N+](=O)[O-])cc1	64 µM
Cc1ccc(Nc2cc(C)c(O)c(C)c2)cc1	> 80 µM (inactive)
O=c1c2ccccc2sn1-c1ccccc1F	14.9 µM
COCCn1nnnc1C(c1cc2cc(OC)c(OC)cc2[nH]c1=O)N1CCN(c2ccc(O)cc2)CC1 (stereo unspecified)	> 80 µM (inactive)
[O-]/[N+](=C/c1cccnc1)c1ccc(Br)cc1	> 80 µM (inactive)
Cc1cc(C)c2c(=O)n(CC(=O)Nc3cccc(Cl)c3C)sc2n1	> 80 µM (inactive)

Structure (SMILES)	IC50
[O-]/[N+](=C\c1ccco1)c1ccc(Cl)cc1	> 80 µM (inactive)
O=C(COc1ccccc1F)OCC(=O)c1ccc([N+](=O)[O-])cc1	44.6 µM
Oc1cc(-n2cccn2)c(O)cc1-n1cccn1	> 80 µM (inactive)
O=C(Nc1ccc(N2CCCC2)cc1)c1cccc(-c2cc3ccccc3oc2=O)c1	> 80 µM (inactive)
N#Cc1c(C#N)c(SSc2c(C#N)c(C#N)c(N)n2-c2ccccc2)n(-c2ccccc2)c1N	> 80 µM (inactive)
C[n+]1c(-c2ccccc2)cc2c(=Cc3ccc([N+](=O)[O-])cc3)c3ccccc3n21	> 80 µM (inactive)
Cc1cccc(C(=O)Nc2sc3c(c2C(=O)O)CCCC3)c1	> 80 µM (inactive)
CCC(=O)OCOc1ccc(/C=C2/CCC(CN(C)C)C2=O)cc1 (stereo unspecified)	> 80 µM (inactive)
O=C(Cn1sc2ccccc2c1=O)NC12CC3CC(CC(C3)C1)C2	15.1 µM
O=c1c2ccccc2[se]n1-c1ccccc1	13.5 µM
CC1=CC(C)(C)Nc2ccc(OC(=O)CN3C(=O)c4cccc5cccc(c45)C3=O)cc21	> 80 µM (inactive)
CN1CCc2cc(O)cc3c2[C@H]1Cc1ccc(O)c(O)c1-3	> 80 µM (inactive)
CC1=CC(C)(C)Nc2ccc(OC(=O)CN3C(=O)CCC3=O)cc21	> 80 µM (inactive)
O=C(CCc1ccc(S(=O)(=O)N2CCOCC2)cc1)N/N=C/c1ccc(O)c(O)c1O	> 80 µM (inactive)
Cc1c(C(=O)N(Cc2ccccc2Cl)C2CCS(=O)(=O)C2)oc2ccccc12 (stereo unspecified)	> 80 µM (inactive)
O=C(Nc1nnc(S(=O)(=O)N2CCCC2)s1)c1cccc([N+](=O)[O-])c1	> 80 µM (inactive)
CCN1CCCC1CNC(=O)c1ccc2c(c1)NC(=O)/C(=C\c1ccccc1F)S2 (stereo unspecified)	> 80 µM (inactive)
Cc1cc(C)nc(NC(N)=NCCc2ccccc2)n1	> 80 µM (inactive)
Cc1cc(C)c2c(=N)c3ccccc3n(CCCCCCCCn3c4ccccc4c(=N)c4c(C)cc(C)nc43)c2n1	> 80 µM (inactive)
CCNc1ccccc1CP(=O)(c1ccccc1)c1ccccc1O (stereo unspecified)	> 80 µM (inactive)
Cc1ccc(/C=C/C(=O)N2CCN(S(=O)(=O)c3ccc(C)c(C)c3)CC2)o1	> 80 µM (inactive)
CCN(CC)CCn1c2ccccc2c(=O)c2c(O)ccc(O)c21	> 80 µM (inactive)
NS(=O)(=O)c1ccc(-c2ccc(C=C3C(=O)NC(=O)NC3=O)o2)cc1	> 80 µM (inactive)
COc1cccc(/C=N/NC(=O)c2c(C)nc3ccc(Br)cn23)c1	> 80 µM (inactive)

Structure (SMILES)	IC50
N#CC1=C(N)Oc2c(O)cc3ccccc3c2C1c1ccsc1 (stereo unspecified)	> 80 µM (inactive)
Cc1nnc(Sc2cc(NCCO)c([N+](=O)[O-])c3nonc23)s1	53.1 µM
Cc1cnc(C=NNC(N)=S)c2cccc(N)c12	> 80 µM (inactive)
COc1cc(N)c2ncsc2c1	> 80 µM (inactive)
Cc1ccc(NC2=C(NC(=O)c3ccccc3)C(=O)c3ccccc3C2=O)cc1Cl	> 80 µM (inactive)
COc1c(O)c(O)c2oc(-c3ccccc3)cc(=O)c2c1OC	> 80 µM (inactive)
CC1(C)CN(c2ccccc2)N(C(=O)c2ccc(C#N)cc2)C1=O	> 80 µM (inactive)
Cc1ccnc(-n2sc3ccccc3c2=O)n1	> 80 µM (inactive)
CSc1nnc(NC(=O)c2ccc3c(c2)OCO3)s1	> 80 µM (inactive)
C=CCOc1ccc(CNc2ccc3[nH]c(=O)[nH]c3c2)cc1OC	> 80 µM (inactive)
COC(=O)[C@H](C)NC(=O)c1cc2c(cn1)[nH]c1ccccc12	> 80 µM (inactive)
CCc1ccccc1N1CSC2=C(C#N)C(c3ccccc3F)CC(=O)N2C1 (stereo unspecified)	> 80 µM (inactive)
COc1ccc(CN(C)S(=O)(=O)c2nnc(NC(=O)c3cccc(C)c3)s2)cc1OC	> 80 µM (inactive)
O=C(Sc1n[nH]c(=O)[nH]c1=O)c1ccccc1	23.3 µM
O=S(=O)(NCc1csc(-c2ccccc2)n1)c1ccc(Cl)s1	> 80 µM (inactive)
Brc1cc2[nH]cnc2c2ccccc12	> 80 µM (inactive)
O=[N+]([O-])c1ccc2c(c1)-c1ccccc1C2O (stereo unspecified)	23.8 µM
Cc1ccc(S(=O)(=O)C=CS(=O)(=O)c2ccc(C)cc2)cc1	33.6 µM
O=C1/C(=C\c2ccc([N+](=O)[O-])cc2)CS(=O)(=O)C/C1=C/c1ccc([N+](=O)[O-])cc1	> 80 µM (inactive)
COc1ccc(/C=C/c2nc3ccccc3n2C)cc1	> 80 µM (inactive)
C/C(Cn1nnc([N+](=O)[O-])n1)=N\NC(=O)c1ccccc1O	> 80 µM (inactive)
CC(=O)Nc1ccc(S(=O)(=O)NNc2cccc(C)c2)cc1	> 80 µM (inactive)
Cc1ccc2nc(SCC(=O)N/N=C/c3ccco3)cc(C)c2c1	> 80 µM (inactive)
